# Assay results taken from US20240044922A1, “DEVICE AND METHODS FOR MEASURING PLATELET-FIBRIN CLOT CONTRACTION KINETICS” (University of Kentucky Research Foundation, priority 2022, published 2024).
# System: washed mouse platelets
# Assay: Clot contraction assay, time-lapse imaging of washed mouse platelets with thrombin, fibrinogen and CaCl2
# Format: cell-based
# [1] = 1 mM EGTA, thrombin 20 mU/mL, fibrinogen 250 μg/mL
# [2] = blebbistatin 50 μM, standard conditions
# [3] = blebbistatin 100 μM, standard conditions
# [4] = blebbistatin 200 μM, standard conditions
smiles,measurement,setting,value
"O=C(O)CN(CCOCCOCCN(CC(=O)O)CC(=O)O)CC(=O)O [EGTA, reference compound]",AUC,[1],7.83 AU
same,Average Velocity,[1],0.51 %/min
same,Clot Contraction Extent,[1],50.72%
same,Lag time,[1],71.67 min
same,Effect on average contraction velocity,EGTA included,significantly reduced
same,Detection of the three phases of contraction,in the presence of EGTA,none of the three phases was detectible
"Cc1ccc2c(c1)C(=O)C1(O)CCN(c3ccccc3)C1=N2 (stereo not shown) [Blebbistatin, blebbistatin, reference compound]",AUC,[2],4.18 AU
same,Average Velocity,[2],1.00 %/min
same,Clot Contraction Extent,[2],96.93%
same,Lag time,[2],23.33 min
same,PHASE 1 % Contraction,[2],4.23%
same,PHASE 1 Rate 1,[2],3.67 ×10^−3 %/min
same,PHASE 1 t1,[2],14.33 min
same,PHASE 2 % Contraction,[2],26.51%
same,PHASE 2 Rate 2,[2],1.40 %/min
same,PHASE 2 t2,[2],32.00 min
same,PHASE 3 % Contraction,[2],66.19%
same,PHASE 3 Rate 3,[2],5.00 ×10^−2 %/min
same,AUC,[3],6.08 AU
same,Average Velocity,[3],0.88 %/min
same,Clot Contraction Extent,[3],85.15%
same,Lag time,[3],40.00 min
same,PHASE 1 % Contraction,[3],7.21%
same,PHASE 1 Rate 1,[3],4.00 ×10^−3 %/min
same,PHASE 1 t1,[3],24.67 min
same,PHASE 2 % Contraction,[3],28.71%
same,PHASE 2 Rate 2,[3],1.00 %/min
same,PHASE 2 t2,[3],51.00 min
same,PHASE 3 % Contraction,[3],49.27%
same,PHASE 3 Rate 3,[3],3.47 ×10^−2 %/min
same,AUC,[4],6.79 AU
same,Average Velocity,[4],0.69 %/min
same,Clot Contraction Extent,[4],66.52%
same,Lag time,[4],43.67 min
same,PHASE 1 % Contraction,[4],12.21%
same,PHASE 1 Rate 1,[4],5.00 ×10^−3 %/min
same,PHASE 1 t1,[4],31.00 min
same,PHASE 2 % Contraction,[4],14.17%
same,PHASE 2 Rate 2,[4],0.69 %/min
same,PHASE 2 t2,[4],49.33 min
same,PHASE 3 % Contraction,[4],40.15%
same,PHASE 3 Rate 3,[4],1.70 ×10^−2 %/min
same,Effect on Phase 2 contraction rate,blebbistatin 50 to 200 μM,drastic decrease
same,Effect on average velocity,blebbistatin 50 to 200 μM,decrease
same,Effect on extent of clot contraction,blebbistatin 50 to 200 μM,decrease
same,Effect on lag time,blebbistatin 50 to 200 μM,dose-dependent increase
